Source: paper PMC3923627 (Cell reports, 2013)

Biological target: p300 histone acetyltransferase (Homo sapiens, UniProt Q09472)
Test: in vitro histone acetyltransferase assay with purified human p300
Assay type: biochemical

p300 histone acetyltransferase, sequence (Q09472 2-2414): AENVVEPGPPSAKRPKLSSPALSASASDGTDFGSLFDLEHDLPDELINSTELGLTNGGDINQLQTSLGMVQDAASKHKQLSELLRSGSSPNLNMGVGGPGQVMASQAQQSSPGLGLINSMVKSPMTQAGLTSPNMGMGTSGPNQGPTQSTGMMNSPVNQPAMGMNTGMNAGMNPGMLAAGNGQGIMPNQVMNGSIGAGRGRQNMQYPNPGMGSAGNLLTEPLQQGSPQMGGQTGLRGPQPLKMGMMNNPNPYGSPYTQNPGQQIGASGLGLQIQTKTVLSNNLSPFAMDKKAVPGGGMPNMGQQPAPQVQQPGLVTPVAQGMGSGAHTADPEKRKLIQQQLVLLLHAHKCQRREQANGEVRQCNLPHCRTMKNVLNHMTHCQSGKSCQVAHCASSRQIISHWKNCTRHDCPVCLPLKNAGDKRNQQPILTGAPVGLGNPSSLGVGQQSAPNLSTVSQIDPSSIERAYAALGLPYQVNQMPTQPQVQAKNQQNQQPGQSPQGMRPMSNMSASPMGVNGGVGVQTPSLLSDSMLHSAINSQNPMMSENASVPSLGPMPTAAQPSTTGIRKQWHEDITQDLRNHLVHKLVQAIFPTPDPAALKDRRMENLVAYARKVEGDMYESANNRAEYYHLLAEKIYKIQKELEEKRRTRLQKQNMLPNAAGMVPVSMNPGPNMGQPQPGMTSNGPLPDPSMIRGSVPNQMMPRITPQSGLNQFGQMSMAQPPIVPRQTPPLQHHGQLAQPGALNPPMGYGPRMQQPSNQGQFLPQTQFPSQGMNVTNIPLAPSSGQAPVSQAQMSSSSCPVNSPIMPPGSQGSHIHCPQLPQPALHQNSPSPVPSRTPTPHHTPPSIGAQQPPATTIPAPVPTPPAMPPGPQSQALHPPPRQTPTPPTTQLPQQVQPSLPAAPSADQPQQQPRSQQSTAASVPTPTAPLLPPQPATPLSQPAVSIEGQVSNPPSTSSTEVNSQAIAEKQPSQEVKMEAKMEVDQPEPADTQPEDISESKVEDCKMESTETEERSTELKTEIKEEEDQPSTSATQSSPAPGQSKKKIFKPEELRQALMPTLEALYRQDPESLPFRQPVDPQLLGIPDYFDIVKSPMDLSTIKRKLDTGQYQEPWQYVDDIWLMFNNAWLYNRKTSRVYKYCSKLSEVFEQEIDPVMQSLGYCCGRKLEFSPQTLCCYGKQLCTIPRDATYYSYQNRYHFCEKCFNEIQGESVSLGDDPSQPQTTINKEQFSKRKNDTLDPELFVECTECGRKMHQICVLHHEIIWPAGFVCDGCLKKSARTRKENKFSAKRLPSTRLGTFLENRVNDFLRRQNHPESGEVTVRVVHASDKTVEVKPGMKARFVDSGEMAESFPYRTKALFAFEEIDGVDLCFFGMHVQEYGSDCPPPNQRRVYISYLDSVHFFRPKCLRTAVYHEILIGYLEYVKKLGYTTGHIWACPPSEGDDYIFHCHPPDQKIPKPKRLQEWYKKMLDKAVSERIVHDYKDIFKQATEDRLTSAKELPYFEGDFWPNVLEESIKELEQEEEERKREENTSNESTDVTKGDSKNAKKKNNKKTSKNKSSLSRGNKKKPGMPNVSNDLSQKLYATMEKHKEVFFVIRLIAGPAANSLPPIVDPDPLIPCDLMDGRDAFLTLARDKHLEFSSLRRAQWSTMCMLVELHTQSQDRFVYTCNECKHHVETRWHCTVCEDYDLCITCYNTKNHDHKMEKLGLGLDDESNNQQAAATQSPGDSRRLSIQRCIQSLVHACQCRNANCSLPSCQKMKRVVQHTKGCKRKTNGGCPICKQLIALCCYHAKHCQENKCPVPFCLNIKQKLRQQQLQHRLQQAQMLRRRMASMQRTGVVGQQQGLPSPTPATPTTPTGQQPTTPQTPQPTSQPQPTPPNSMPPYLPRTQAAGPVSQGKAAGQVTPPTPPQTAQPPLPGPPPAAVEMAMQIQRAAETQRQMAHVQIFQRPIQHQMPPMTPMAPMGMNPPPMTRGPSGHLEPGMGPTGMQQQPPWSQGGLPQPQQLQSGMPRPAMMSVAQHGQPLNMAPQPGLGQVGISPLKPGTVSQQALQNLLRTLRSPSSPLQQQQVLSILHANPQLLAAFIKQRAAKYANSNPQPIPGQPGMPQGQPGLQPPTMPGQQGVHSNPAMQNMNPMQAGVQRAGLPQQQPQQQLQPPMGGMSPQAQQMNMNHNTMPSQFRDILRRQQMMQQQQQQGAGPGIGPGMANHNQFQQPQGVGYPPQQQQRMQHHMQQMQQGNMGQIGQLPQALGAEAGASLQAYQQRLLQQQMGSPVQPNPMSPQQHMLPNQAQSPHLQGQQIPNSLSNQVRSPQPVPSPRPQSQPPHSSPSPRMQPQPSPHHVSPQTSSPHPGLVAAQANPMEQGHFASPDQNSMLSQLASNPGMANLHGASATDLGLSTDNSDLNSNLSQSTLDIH

## COc1ccc(/C(Cl)=C(/C=O)c2ccc(OC)cc2)cc1 [WD, (Z) 3-chloro-2,3-bis(4-methoxyphenyl)acrylaldehyde]
  IC50: 4.2 µM
